Source: the supplement of paper PMC10307832

Legend:
Assay in all cases: relative viability (nuclei count vs DMSO), 5 days (fraction); higher = more cells survive
[1] = tested on: LOU-NH91
Summary of the method: (§1)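 Relative viability was taken as the ratio of nuclei in treated wells to nuclei in vehicle wells. Lung cancer cell lines in 1536-well plates received compounds by pin tool one day after seeding, either one drug alone or a fixed anchor-drug dose plus five library-drug doses (not always all listed) in √10 steps. Nuclei were counted on 4× images after 5 days of treatment, and values are medians of duplicate plates.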

[2] = tested on: NCI-H1793
Summary of the method: as §1

[3] = tested on: NCI-H1650
Summary of the method: as §1

[4] = tested on: NCI-H441
Summary of the method: as §1

[5] = tested on: NCI-H2405
Summary of the method: as §1

[6] = tested on: NCI-H1993
Summary of the method: as §1

[7] = tested on: EPLC-272H
Summary of the method: as §1

[8] = tested on: RERF-LC-KJ
Summary of the method: as §1

[9] = tested on: NCI-H1734
Summary of the method: as §1

[10] = tested on: NCI-H520
Summary of the method: as §1

[11] = tested on: NCI-H2170
Summary of the method: as §1

[12] = tested on: NCI-H2347
Summary of the method: as §1

[13] = tested on: 201T
Summary of the method: as §1

[14] = tested on: NCI-H647
Summary of the method: as §1

[15] = tested on: NCI-H2023
Summary of the method: as §1

[16] = tested on: NCI-H3122
Summary of the method: as §1

[17] = tested on: NCI-H2085
Summary of the method: as §1

[18] = tested on: PC-14
Summary of the method: as §1

[19] = tested on: SW 900
Summary of the method: as §1

[20] = tested on: H3255
Summary of the method: as §1

[21] = tested on: HCC-44
Summary of the method: as §1

[22] = tested on: COR-L23
Summary of the method: as §1

O=C(O)c1ccc(-c2c[nH]c3ncc(-c4ccccc4)cc23)cc1C1CCCC1 + CC(=O)c1c(C)c2cnc(Nc3ccc(N4CCNCC4)cn3)nc2n(C2CCCC2)c1=O [Palbociclib] (partner 0.5 µM)
relative viability ([1]; first compound 0.04 µM): 0.593
relative viability ([1]; first compound 0.1265 µM): 0.517
relative viability ([1]; first compound 0.4 µM): 0.525
relative viability ([1]; first compound 1.265 µM): 0.469
relative viability ([2]; first compound 0.04 µM): 0.248
relative viability ([2]; first compound 0.1265 µM): 0.338
relative viability ([2]; first compound 0.4 µM): 0.302
relative viability ([2]; first compound 1.265 µM): 0.31
relative viability ([3]; first compound 0.04 µM): 0.34
relative viability ([3]; first compound 0.1265 µM): 0.285
relative viability ([3]; first compound 0.4 µM): 0.321
relative viability ([3]; first compound 1.265 µM): 0.193
relative viability ([4]; first compound 0.04 µM): 0.248
relative viability ([4]; first compound 0.1265 µM): 0.232
relative viability ([4]; first compound 0.4 µM): 0.223
relative viability ([4]; first compound 1.265 µM): 0.22
relative viability ([5]; first compound 0.04 µM): 0.529
relative viability ([5]; first compound 0.1265 µM): 0.557
relative viability ([5]; first compound 0.4 µM): 0.517
relative viability ([5]; first compound 1.265 µM): 0.473
relative viability ([6]; first compound 0.04 µM): 0.62
relative viability ([6]; first compound 0.1265 µM): 0.601
relative viability ([6]; first compound 0.4 µM): 0.596
relative viability ([6]; first compound 1.265 µM): 0.537
relative viability ([7]; first compound 0.04 µM): 0.337
relative viability ([7]; first compound 0.1265 µM): 0.332
relative viability ([7]; first compound 0.4 µM): 0.321
relative viability ([7]; first compound 1.265 µM): 0.294
relative viability ([8]; first compound 0.04 µM): 1.01
relative viability ([8]; first compound 0.1265 µM): 1.02
relative viability ([8]; first compound 0.4 µM): 0.97
relative viability ([8]; first compound 1.265 µM): 0.875
relative viability ([9]; first compound 0.04 µM): 0.324
relative viability ([9]; first compound 0.1265 µM): 0.328
relative viability ([9]; first compound 0.4 µM): 0.302
relative viability ([9]; first compound 1.265 µM): 0.344
relative viability ([10]; first compound 0.04 µM): 0.192
relative viability ([10]; first compound 0.1265 µM): 0.217
relative viability ([10]; first compound 0.4 µM): 0.226
relative viability ([10]; first compound 1.265 µM): 0.182
relative viability ([11]; first compound 0.04 µM): 0.387
relative viability ([11]; first compound 0.1265 µM): 0.438
relative viability ([11]; first compound 0.4 µM): 0.39
relative viability ([11]; first compound 1.265 µM): 0.389
relative viability ([12]; first compound 0.04 µM): 0.453
relative viability ([12]; first compound 0.1265 µM): 0.446
relative viability ([12]; first compound 0.4 µM): 0.386
relative viability ([12]; first compound 1.265 µM): 0.438
relative viability ([13]; first compound 0.04 µM): 0.353
relative viability ([13]; first compound 0.1265 µM): 0.364
relative viability ([13]; first compound 0.4 µM): 0.341
relative viability ([13]; first compound 1.265 µM): 0.364
relative viability ([14]; first compound 0.04 µM): 0.399
relative viability ([14]; first compound 0.1265 µM): 0.434
relative viability ([14]; first compound 0.4 µM): 0.453
relative viability ([14]; first compound 1.265 µM): 0.33
relative viability ([15]; first compound 0.04 µM): 0.407
relative viability ([15]; first compound 0.1265 µM): 0.394
relative viability ([15]; first compound 0.4 µM): 0.358
relative viability ([15]; first compound 1.265 µM): 0.312
relative viability ([16]; first compound 0.04 µM): 0.201
relative viability ([16]; first compound 0.1265 µM): 0.175
relative viability ([16]; first compound 0.4 µM): 0.174
relative viability ([16]; first compound 1.265 µM): 0.198
relative viability ([17]; first compound 0.04 µM): 0.448
relative viability ([17]; first compound 0.1265 µM): 0.476
relative viability ([17]; first compound 0.4 µM): 0.457
relative viability ([17]; first compound 1.265 µM): 0.349
relative viability ([18]; first compound 0.04 µM): 0.473
relative viability ([18]; first compound 0.1265 µM): 0.532
relative viability ([18]; first compound 0.4 µM): 0.396
relative viability ([18]; first compound 1.265 µM): 0.486
relative viability ([19]; first compound 0.04 µM): 0.523
relative viability ([19]; first compound 0.1265 µM): 0.521
relative viability ([19]; first compound 0.4 µM): 0.578
relative viability ([19]; first compound 1.265 µM): 0.277
relative viability ([20]; first compound 0.04 µM): 0.303
relative viability ([20]; first compound 0.1265 µM): 0.325
relative viability ([20]; first compound 0.4 µM): 0.286
relative viability ([20]; first compound 1.265 µM): 0.312
relative viability ([21]; first compound 0.04 µM): 0.967
relative viability ([21]; first compound 0.1265 µM): 0.938
relative viability ([21]; first compound 0.4 µM): 0.875
relative viability ([21]; first compound 1.265 µM): 0.805
relative viability ([22]; first compound 0.04 µM): 0.296
relative viability ([22]; first compound 0.1265 µM): 0.326
relative viability ([22]; first compound 0.4 µM): 0.308
relative viability ([22]; first compound 1.265 µM): 0.205
